# Test results taken from patent US20220409686A1, “MEDICAL COMPOSITIONS AND THEIR USES” (BIOMILLENIA SAS, priority 2019, published 2022).
# Entries after “also recorded” stand apart in the source; their conditions may differ.
# Legend:
# Format in all cases: cell-based
# [1] = tested on: Malassezia globosa; test: modified disc diffusion assay with living culture (Example 2); settings: M. globosa lawn; discs soaked with 15 ul exponentially growing Acetobacter culture or ketoconazole 1 mg/mL in DMSO; 5 days incubation
# Method: (§1) FIG. 1|Inhibition assays of M. restricta and M. globose by growth of Acetobacter fabarum. Discs were soaked with ketoconazole (1 mg/ml in DMSO) or exponentially growing Acetobacter fabarum culture and placed on agar plates containing a soft layer inoculated with a single culture of the different Malassezia species to be tested. In the upper panel, inhibition of Malassezia globosa is shown; in the bottom panel, Malassezia restricta is shown.
# (§2) In order to identify strains whose growth inhibits Malassezia, inhibition assays were performed using a modified disc diffusion method. This method is similar to the classical disc diffusion method that consists in depositing discs imbibed with potential inhibitory substances on Petri plates containing a strain of interest, except that the discs were imbibed with a living culture of an Acetobacter strain. After optimal growth of the strain of interest, growth inhibition can be observed around discs on which the growth of inhibitory bacteria has occurred. Ketoconazole (at 1 mg/mL in DMSO) was used as a positive control for Malassezia growth inhibition. The effect of growth of Acetobacter was tested on Malassezia restricta and Malassezia globosa. All Malassezia strains were streaked from −80° C. stock on Modified Leeming and Notman (MLN) agar plates and incubated 10 days at 30° C. […]
# [2] = tested on: Malassezia restricta; test: as above; settings: M. restricta lawn; discs soaked with 15 ul exponentially growing Acetobacter culture or ketoconazole 1 mg/mL in DMSO; 5 days incubation
# Method: as §1, §2
# [3] = tested on: Malassezia globosa; test: disc diffusion inhibition assay (Example 1); settings: M. globosa lawn in soft agar; 6 mm discs soaked with 15 ul supernatant or ketoconazole 1 mg/ml in DMSO; 5 days incubation
# Method: (§3) FIG. 1|Inhibition assays of the fungicide ketoconazole as positive control for inhibition and Kazachstania unispora supernatant on M. sympodialis, M. furfur, M. restricta and M. globosa. Inhibition assays were performed using the disc diffusion method. Discs were soaked with ketoconazole (1 mg/ml) or K. unispora supernatant and placed on agar plates containing a soft layer inoculated with a single culture of the different Malassezia species to be tested.
# (§4) In order to identify strains inhibiting Malassezia growth, inhibition assays were performed using the disc diffusion method. This method consists in disposing discs imbibed with potential inhibitory substances on Petri plates containing a strain of interest. After optimal growth of the strain of interest, growth inhibition can be observed around discs soaked with substances having an inhibitory effect. Potential inhibitory substances tested in this experiment are supernatants obtained after individually culturing a collection of fungal and bacterial strains. After an incubation of 10 days in their optimal broth, each culture was centrifuged and the supernatant was filtered and further stored at −20° C. Ketoconazole, a fungicide, was used as a positive control for Malassezia growth inhibition. It was diluted in dimethyl sulfoxide at 1 mg/ml. The collection of supernantants was tested on the following species from the genus Malassezia: Malassezia restricta, Malassezia globosa, Malassezia furfur and Malassezia sympodialis. All strains were streaked from −80° C. stock on Modified Leeming and Notman (MLN) agar plates and incubated 10 days at 30° C. A 5 ml liquid culture of each species was made in MLN broth and incubated at 30° C. for 2 days for M. furfur and M. sympodialis and 5 days for M. restricta and M. globosa. To allow a lawn growth of the different Malassezia strains tested, Petri plates were prepared as follows: a bottom layer of 50 ml Modified Sabouraud Dextrose (MSD) agar was poured in Petri plates. The soft agar, constituting the top layer, was a mix of 12.5 ml MSD agar, 10.5 ml MLN broth and 2 ml of liquid culture. Plates were allowed to dry for one hour, then, 6 mm-diameter Whatman™ discs were soaked with 15 ul of each thawed supernatants and ketoconazole and placed on the soft agar plate containing the solidified Malassezia monoculture layer. After an incubation of 5 days, inhibition area could be easily observed around discs. As expected, ketoconazole inhibited all 4 Malassezia species tested in this experiment. […] The strain from which the inhibitory supernatant has been produced was further sequenced using the Sanger technology. The internal transcribed spacer (ITS) of this strain was taxonomically assigned to the yeast Kazachstania unispora (BLASTn, 99% identity, 99% query cover, e-value 0.00).
# [4] = tested on: Malassezia restricta; test: disc diffusion inhibition assay (Example 1); settings: M. restricta lawn in soft agar; 6 mm discs soaked with 15 ul supernatant or ketoconazole 1 mg/ml in DMSO; 5 days incubation
# Method: as §3, §4
# [5] = tested on: Malassezia sympodialis; test: disc diffusion inhibition assay (Example 1); settings: M. sympodialis lawn in soft agar; 6 mm discs soaked with 15 ul supernatant or ketoconazole 1 mg/ml in DMSO; 5 days incubation
# Method: as §3, §4
# [6] = tested on: Malassezia furfur; test: disc diffusion inhibition assay (Example 1); settings: M. furfur lawn in soft agar; 6 mm discs soaked with 15 ul supernatant or ketoconazole 1 mg/ml in DMSO; 5 days incubation
# Method: as §3, §4
compound,measurement,setting,value
CC(=O)N1CCN(c2ccc(OCC3COC(Cn4ccnc4)(c4ccc(Cl)cc4Cl)O3)cc2)CC1 (stereo not drawn) [ketoconazole],growth inhibition (inhibition halo around disc),[1],inhibits growth; also recorded: inhibited
same,growth inhibition (inhibition halo around disc),[2],inhibits growth; also recorded: inhibited
same,growth inhibition (inhibition halo around disc),[3],inhibits growth; also recorded: inhibited
same,growth inhibition (inhibition halo around disc),[4],inhibits growth; also recorded: inhibited
same,growth inhibition (inhibition halo around disc),[5],inhibits growth; also recorded: inhibited
same,growth inhibition (inhibition halo around disc),[6],inhibits growth; also recorded: inhibited
